From patent US11168075B2, “Compounds and their use for reducing uric acid levels” (Acquist LLC, priority 2016, dated 2021)
Like-named read-outs stand apart in the source and are kept apart here.

Target: xanthine oxidase (Homo sapiens (Human), UniProt P47989)
Experiment: Fluorescence-based xanthine oxidase activity assay
Type: biochemical
Details: for inhibition of xanthine oxidase compared to allopurinol: statement in words
[1] = read-out: Xanthine Oxidase IC50

xanthine oxidase, sequence (P47989 whole entry, species assumed): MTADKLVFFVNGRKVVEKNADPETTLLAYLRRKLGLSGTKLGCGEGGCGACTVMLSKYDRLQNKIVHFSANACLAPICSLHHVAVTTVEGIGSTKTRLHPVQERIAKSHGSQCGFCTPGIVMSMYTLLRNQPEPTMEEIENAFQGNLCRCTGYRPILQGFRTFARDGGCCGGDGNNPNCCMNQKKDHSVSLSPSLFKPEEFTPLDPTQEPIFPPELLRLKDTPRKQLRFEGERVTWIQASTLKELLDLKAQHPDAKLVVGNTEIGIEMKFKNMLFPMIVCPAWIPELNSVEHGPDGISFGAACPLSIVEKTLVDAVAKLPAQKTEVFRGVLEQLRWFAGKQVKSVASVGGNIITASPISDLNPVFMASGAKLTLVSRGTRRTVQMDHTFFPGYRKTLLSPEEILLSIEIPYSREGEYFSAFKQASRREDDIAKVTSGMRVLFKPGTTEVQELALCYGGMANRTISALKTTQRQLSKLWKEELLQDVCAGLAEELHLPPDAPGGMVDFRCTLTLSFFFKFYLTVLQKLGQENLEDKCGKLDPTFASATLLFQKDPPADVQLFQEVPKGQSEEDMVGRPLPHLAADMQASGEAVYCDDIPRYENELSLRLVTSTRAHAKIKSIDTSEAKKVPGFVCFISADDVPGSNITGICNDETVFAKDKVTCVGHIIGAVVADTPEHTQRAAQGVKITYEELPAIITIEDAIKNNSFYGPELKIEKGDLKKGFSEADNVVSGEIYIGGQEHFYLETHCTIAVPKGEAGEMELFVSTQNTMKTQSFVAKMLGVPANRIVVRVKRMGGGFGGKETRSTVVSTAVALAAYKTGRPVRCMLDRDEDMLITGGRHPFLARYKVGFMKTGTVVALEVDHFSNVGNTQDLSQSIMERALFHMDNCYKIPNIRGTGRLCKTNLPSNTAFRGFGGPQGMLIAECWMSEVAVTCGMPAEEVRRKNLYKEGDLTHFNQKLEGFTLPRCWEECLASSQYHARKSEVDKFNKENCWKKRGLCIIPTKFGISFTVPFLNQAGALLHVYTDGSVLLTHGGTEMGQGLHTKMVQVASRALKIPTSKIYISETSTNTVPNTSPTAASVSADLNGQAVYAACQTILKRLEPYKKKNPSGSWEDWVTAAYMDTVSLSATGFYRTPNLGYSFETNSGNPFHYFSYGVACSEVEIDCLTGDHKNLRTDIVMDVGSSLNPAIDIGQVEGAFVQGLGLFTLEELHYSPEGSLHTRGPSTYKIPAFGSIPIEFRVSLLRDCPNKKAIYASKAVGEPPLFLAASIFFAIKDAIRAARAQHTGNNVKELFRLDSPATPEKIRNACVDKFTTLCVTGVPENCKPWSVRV

## O=C(NC1CCC(c2c[nH]nn2)CC1)c1c(O)[nH]c(=O)[nH]c1=O (stereo not shown) [Formula (Ii)]
[1]
  IC50: > 296 µM

## O=C(NO)c1cc(NC(=O)c2c(O)[nH]c(=O)[nH]c2=O)ccn1 [Formula (VIIIb), 6-hydroxy-N-(2-(hydroxycarbamoyl)pyridin-4-yl)-2,4-dioxo-1,2,3,4-tetrahydropyrimidine-5-carboxamide]
[1]
  IC50: 73.8 µM

## N/N=C(/Nc1ccc(-c2cnn[nH]2)cc1)c1c(O)[nH]c(=O)[nH]c1=O [Formula (Id), (E)-N-(4-(1H-1,2,3-triazol-5-yl)phenyl)-2,4,6-trioxohexahydropyrimidine-5-carbohydrazonamide]
  IC50: > 300 µM

## COc1nc(O)c(C(=O)Nc2ccc(-c3cnn[nH]3)cc2)c(=O)[nH]1 [Formula (IIb), N-(4-(3H-1,2,3-triazol-4-yl)phenyl)-4-hydroxy-2-methoxy-6-oxo-1,6-dihydropyrimidine-5-carboxamide]
[1]
  IC50: 0.56 µM
  inhibition of xanthine oxidase compared to allopurinol: particularly potent inhibitors

## O=C1Nc2ccc(NC(=O)c3c(O)[nH]c(=O)[nH]c3=O)cc2C1=O [Formula (IVb), N-(2,3-dioxoindolin-5-yl)-6-hydroxy-2,4-dioxo-1,2,3,4-tetrahydropyrimidine-5-carboxamide]
[1]
  IC50: > 300 µM

## O=C(Nc1ccc2c(c1)C1(OCCO1)C(=O)N2)c1c(O)[nH]c(=O)[nH]c1=O [Formula (IVc), 6-Hydroxy-2,4-dioxo-N-(2′-oxospiro[[1,3]dioxolane-2,3′-indolin]-5′-yl)-1,2,3,4-tetrahydropyrimidine-5-carboxamide]
  IC50: > 300 µM

## O=C(NC1CCC(O)(c2c[nH]nn2)CC1)c1c(O)[nH]c(=O)[nH]c1=O (stereo not shown) [Formula (Ij), 6-hydroxy-N-(4-hydroxy-4-(1H-1,2,3-triazol-4-yl)cyclohexyl)-2,4-dioxo-1,2,3,4-tetrahydropyrimidine-5-carboxamide]
[1]
  IC50: 13.1 µM

## O=C(Nc1nc(O)c2cn[nH]c2n1)c1c(O)[nH]c(=O)[nH]c1=O [Formula (Va), 6-hydroxy-N-(4-hydroxy-1H-pyrazolo[3,4-d]pyrimidin-6-yl)-2,4-dioxo-1,2,3,4-tetrahydropyrimidine-5-carboxamide]
[1]
  IC50: 36.1 µM

## Nc1[nH]c(=O)[nH]c(=O)c1C(=O)Nc1ccc(-c2c[nH]nn2)cc1 [Formula (Ik), N-(4-(1H-1,2,3-triazol-5-yl)phenyl)-6-amino-2,4-dioxo-1,2,3,4-tetrahydropyrimidine-5-carboxamide]
[1]
  IC50: 1.3 µM
  inhibition of xanthine oxidase compared to allopurinol: particularly potent inhibitors

## N=C(Nc1ccc(-c2cnn[nH]2)cc1)c1c(O)[nH]c(=O)[nH]c1=O [Formula (Ia), N-(4-(1H-1,2,3-triazol-4-yl)phenyl)-6-hydroxy-2,4-dioxo-1,2,3,4-tetrahydropyrimidine-5-carboximidamide]
[1]
  IC50: 0.25 µM
  inhibition of xanthine oxidase compared to allopurinol: particularly potent inhibitors

## CC(C)Sc1nc(O)c(C(=O)Nc2ccc(-c3c[nH]nn3)cc2)c(=O)[nH]1 [Formula (IId), N-(4-(1H-1,2,3-triazol-5-yl)phenyl)-4-hydroxy-2-(isopropylthio)-6-oxo-1,6-dihydropyrimidine-5-carboxamide]
  inhibition of xanthine oxidase compared to allopurinol: particularly potent inhibitors

## Cn1c(O)c(C(=N)Nc2ccc(-c3cnn[nH]3)cc2)c(=O)n(C)c1=O [Formula (If), N-(4-(1H-1,2,3-triazol-5-yl)phenyl)-6-hydroxy-1,3-dimethyl-2,4-dioxo-1,2,3,4-tetrahydropyrimidine-5-carboximidamide]
[1]
  IC50: 0.2 µM
  inhibition of xanthine oxidase compared to allopurinol: particularly potent inhibitors

## Cn1c(=O)c2c(Nc3ccc(-c4cnn[nH]4)cc3)n[nH]c2n(C)c1=O [Formula (VIc), 3-((4-(1H-1,2,3-triazol-5-yl)phenyl)amino)-5,7-dimethyl-1H-pyrazolo[3,4-d]pyrimidine-4,6(5H,7H)-dione]
[1]
  IC50: 2.5 µM

## Cn1c(=O)[nH]c(O)c(C(=N)Nc2ccc(-c3cnn[nH]3)cc2)c1=O [Formula (Ih)]
  IC50: 0.74 µM
  inhibition of xanthine oxidase compared to allopurinol: particularly potent inhibitors

## Cn1c(O)c(C(=O)Nc2ccc(-c3cnn[nH]3)cc2)c(=O)n(C)c1=O [Formula (Ie), N-(4-(1H-1,2,3-triazol-4-yl)phenyl)-6-hydroxy-1,3-dimethyl-2,4-dioxo-1,2,3,4-tetrahydropyrimidine-5-carboxamide]
[1]
  IC50: 1.6 µM
  inhibition of xanthine oxidase compared to allopurinol: particularly potent inhibitors

## O=C(Nc1ccc(-c2noc(C(F)(F)F)n2)cc1)c1c(O)[nH]c(=O)[nH]c1=O [Formula (In), 6-hydroxy-2,4-dioxo-N-(4-(5-(trifluoromethyl)-1,2,4-oxadiazol-3-yl)phenyl)-1,2,3,4-tetrahydropyrimidine-5-carboxamide]
  IC50: 292 µM

## O=C(Nc1ccc2[nH]c(=O)[nH]c2c1)c1c(O)[nH]c(=O)[nH]c1=O [Formula (IVa), 6-hydroxy-2,4-dioxo-N-(2-oxo-2,3-dihydro-1H-benzo[d]imidazol-5-yl)-1,2,3,4-tetrahydropyrimidine-5-carboxamide]
[1]
  IC50: 8.6 µM

## O=C(Nc1c(O)[nH]c(=O)[nH]c1=O)c1ccc(-c2cnn[nH]2)cc1 [Formula (Il), 4-(1H-1,2,3-triazol-4-yl)-N-(2,4,6-trioxohexahydropyrimidin-5-yl)benzamide]
  IC50: 6.3 µM

## Cn1c(=O)[nH]c(O)c(C(=O)Nc2ccc(-c3cnn[nH]3)cc2)c1=O [Formula (Ig), N-(4-(1H-1,2,3-triazol-4-yl)phenyl)-2,4-dihydroxy-1-methyl-6-oxo-1,6-dihydropyrimidine-5-carboxamide]
[1]
  IC50: 0.55 µM
  inhibition of xanthine oxidase compared to allopurinol: particularly potent inhibitors

## CS/C(=N\c1ccc(-c2cnn[nH]2)cc1)c1c(O)[nH]c(=O)[nH]c1=O [Formula (Ib), 5-(((4-(1H-1,2,3-triazol-5-yl)phenyl)amino)(methylthio)methylene)pyrimidine-2,4,6(1H,3H,5H)-trione]
  IC50: 54.1 µM

## O=C(Nc1ccc(-c2[nH]nnc2-c2ccccc2)cc1)c1c(O)[nH]c(=S)[nH]c1=O [Formula (Im), 6-hydroxy-4-oxo-N-(4-(4-phenyl-1H-1,2,3-triazol-5-yl)phenyl)-2-thioxo-1,2,3,4-tetrahydropyrimidine-5-carboxamide]
[1]
  IC50: 18.2 µM

## O=c1[nH]c(=O)c2c(Nc3ccc(-c4cnn[nH]4)cc3)n[nH]c2[nH]1 [Formula (VIb), 3-((4-(1H-1,2,3-triazol-5-yl)phenyl)amino)-1H-pyrazolo[3,4-d]pyrimidine-4,6(5H,7H)-dione]
[1]
  IC50: 0.14 µM
  inhibition of xanthine oxidase compared to allopurinol: particularly potent inhibitors

## O=C1NS(=O)(=O)c2cc(NC(=O)c3c(O)[nH]c(=O)[nH]c3=O)ccc21 [Formula (IIIa), N-(1,1-dioxido-3-oxo-2,3-dihydrobenzo[d]isothiazol-6-yl)-2,4,6-trihydroxypyrimidine-5-carboxamide]
[1]
  IC50: 4.5 µM

## O=C(NO)c1ccc(NC(=O)c2c(O)[nH]c(=O)[nH]c2=O)cc1 [Formula (VIIIa), 6-hydroxy-N-(4-(hydroxycarbamoyl)phenyl)-2,4-dioxo-1,2,3,4-tetrahydropyrimidine-5-carboxamide]
[1]
  IC50: 17.4 µM

## O=c1[nH]c(O)c(/C(=N\O)Nc2ccc(-c3cnn[nH]3)cc2)c(=O)[nH]1 [Formula (Ic), (E)-N-(4-(1H-1,2,3-triazol-5-yl)phenyl)-N′-hydroxy-2,4,6-trioxohexahydro-pyrimidine-5-carboximidamide]
  IC50: 1.2 µM

## O=c1nc2[nH]n(-c3ccc(-c4cnn[nH]4)cc3)c(=O)c2c(O)[nH]1 [Formula (VIIa), 2-(4-(1H-1,2,3-triazol-5-yl)phenyl)-4,6-dihydroxy-1H-pyrazolo[3,4-d]pyrimidin-3(2H)-one]
[1]
  IC50: 7 µM
